Read-outs that look alike come from different tables or passages of the source.
Tested on: TG-I m RNA
Assay: Expression amounts of TG-I mRNA by RT-PCR in cultured corneal epithelial cells (G3PDH internal standard)
Type: cell-based, human
Details: for inhibition at 1 µM: read-out: inhibition (of TG-I m RNA expression)
Method: Glyceraldehyde-3-phosphoric acid dehydrogenase (G3PDH) was used as an internal standard in consideration of scatter of template total RNA amounts.
Cultured SV40 immortalized human corneal epithelial cells (1 × 10^6 cells) were cultured in a culture medium (DMEM/F12) containing a test compound under a condition of 37°C and 5% CO2 for 72 hours. After culturing, total RNA was extracted according to the AGPC method. Then, RT-PCR was carried out using a primer which is specific for TG-I m RNA or G3PDH m RNA using a Takara RNA-PCR kit (AMV). PCR products were electrophoresed on 1% agarose gel, and bands were detected with a transilluminator. Cells cultured in a culture medium containing no test compound in the same manner were used as a control.
The expression amounts of TG-I m RNA were calculated according to the following equation 1 so that an expression amount in the control was 100. Expression amount = (B/A) × 100 [formula] • A: A band area of a TG-I amplified fragment on the basis of a band area of a G3PDH amplified fragment in the control • B: A band area of a TG-I amplified fragment on the basis of a band area of a G3PDH amplified fragment in the presence of the test compound

Compound | inhibition of TG-I m RNA expression, dependence on concentration (10 nM, 100 nM and 1000 nM) | mrna remaining at 0.01 µM (Corneal epithelial cell, 10 nM test compound, 72 hours culture, SV40 immortalized human corneal epithelial cells, control = 100, read-out: Expression amount) [%] | mrna remaining at 0.1 µM (Corneal epithelial cell, 100 nM test compound, 72 hours culture, SV40 immortalized human corneal epithelial cells, control = 100, read-out: Expression amount) [%] | mrna remaining at 1 µM (Corneal epithelial cell, 1000 nM test compound, 72 hours culture, SV40 immortalized human corneal epithelial cells, control = 100, read-out: Expression amount) [%] | inhibition at 0.01 µM (Homo sapiens, Corneal epithelial cell, 72 h, concentration of 10 nM) [%] | mrna remaining at 0.01 µM (Homo sapiens, Corneal epithelial cell, 72 h, concentration of 10 nM, relative to control, read-out: expression amounts of TG-I m RNA in the corneal epithelial cells) [%] | inhibition at 0.1 µM (Homo sapiens, Corneal epithelial cell, 72 h, concentration of 100 nM) [%] | mrna remaining at 0.1 µM (Homo sapiens, Corneal epithelial cell, 72 h, concentration of 100 nM, relative to control, read-out: expression amounts of TG-I m RNA in the corneal epithelial cells) [%] | inhibition at 1 µM (Homo sapiens, Corneal epithelial cell, 72 h, concentration of 1000 nM) [%] | mrna remaining at 1 µM (Homo sapiens, Corneal epithelial cell, 72 h, concentration of 1000 nM, relative to control, read-out: expression amounts of TG-I m RNA in the corneal epithelial cells) [%] | mrna remaining at 1 µM (Homo sapiens, Corneal epithelial cell, 72 h, read-out: Expression amount) [%] | mrna remaining at 1 µM (Homo sapiens, Corneal epithelial cell, 72 h, read-out: expression amounts of TG-I m RNA in the corneal epithelial cells) [%] | inhibition at 1 µM (Homo sapiens, Corneal epithelial cell, 72 h) [%] | inhibitory effect relative to that of 1α , 24 (R)-dihydroxyvitamin D3 (comparative compound at 1000 nM)
C=C1/C(=C\C=C2/CCC[C@]3(C)[C@@H]([C@H](C)CC[C@@H](O)C(C)C)CC[C@@H]23)C[C@@H](O)C[C@@H]1O [1α , 24 (R)-Dihydroxyvitamin D3] | concentration-dependent inhibition was observed | 66 | 39 | 22 | 34 | 66 | 61 | 39 | 78 | 22 |  |  |  | 
C=C1/C(=C\C=C2/CCC[C@]3(C)[C@@H]([C@H](C)CCCC(C)(C)O)CC[C@@H]23)C[C@@H](O)C[C@@H]1O [1α , 25-Dihydroxyvitamin D3] |  |  |  |  |  |  |  |  |  |  | 48 | 48 | 52 | one tenth or less

— patent publication EP0998931A1, “REMEDIES FOR DRY EYE” (priority 1997, dated 1998)
